Target: T1, GluK2 (Rattus norvegicus, UniProt P42260)
T1 construct: gene Grik2; wild-type rat GluK2 expressed in HEK293T cells
Experiment: whole-cell patch-clamp, potentiation of glutamate-evoked peak current
Format: cell-based

T1 sequence (P42260 32-908): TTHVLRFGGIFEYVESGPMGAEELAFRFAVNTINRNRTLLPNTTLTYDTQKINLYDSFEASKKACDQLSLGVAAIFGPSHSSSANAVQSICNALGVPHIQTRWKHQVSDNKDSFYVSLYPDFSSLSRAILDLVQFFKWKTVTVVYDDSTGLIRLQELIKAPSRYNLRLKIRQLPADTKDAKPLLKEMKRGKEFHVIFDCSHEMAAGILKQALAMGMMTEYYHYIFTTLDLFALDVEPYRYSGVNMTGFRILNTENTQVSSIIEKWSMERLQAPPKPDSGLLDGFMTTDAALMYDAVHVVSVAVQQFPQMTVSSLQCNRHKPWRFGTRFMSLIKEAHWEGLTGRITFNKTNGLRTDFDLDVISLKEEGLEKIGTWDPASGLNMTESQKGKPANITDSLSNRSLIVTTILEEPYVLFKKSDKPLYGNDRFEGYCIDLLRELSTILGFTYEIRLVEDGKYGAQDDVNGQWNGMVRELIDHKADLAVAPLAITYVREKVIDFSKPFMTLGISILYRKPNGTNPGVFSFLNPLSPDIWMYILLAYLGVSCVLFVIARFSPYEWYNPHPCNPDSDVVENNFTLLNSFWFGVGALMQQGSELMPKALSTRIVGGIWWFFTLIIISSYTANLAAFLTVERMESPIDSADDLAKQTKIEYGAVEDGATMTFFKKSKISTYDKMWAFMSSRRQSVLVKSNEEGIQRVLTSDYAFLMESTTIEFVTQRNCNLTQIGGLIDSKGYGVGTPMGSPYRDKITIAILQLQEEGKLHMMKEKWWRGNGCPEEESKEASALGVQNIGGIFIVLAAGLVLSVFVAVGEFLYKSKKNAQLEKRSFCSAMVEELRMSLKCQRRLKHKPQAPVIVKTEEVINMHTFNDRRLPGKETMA

## O=S1(=O)NCN(C2CC2)c2ccc(F)cc21 [BPAM344]
  whole-cell patch-clamp, potentiation of glutamate-evoked peak current: Potentiation of the peak current amplitudes (Ipeak) of GluK2 WT (left)
